Reference: patent US10517889B2, “Modulators of SMAD7 expression” (Ionis Pharmaceuticals, Inc., priority 2017, dated 2019)
Strand notation (5' to 3'): a small letter for the sugar, then the base; units joined by * are phosphorothioate-linked, units joined directly phosphodiester-linked; [ ] holds rarer units or linkages, { } end groups; capitals alone tell only the bases. e = 2'-O-(2-methoxyethyl) (MOE); [5mC] = 5-methylcytosine; d = 2'-deoxy (DNA)

How the values were obtained:
human SMAD7 mRNA [1] = test: Antisense inhibition of human SMAD7 mRNA expression in Hep3B cells by 5-10-5 MOE gapmers, single concentration, electroporation, RT-PCR (Example 1, Study 1 and 2); type: cell-based
Method in brief: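 Hep3B cells (20,000/well) electroporated with 5-10-5 MOE gapmer at 5,000 nM or 15,000 nM for approximately 24 h. SMAD7 mRNA quantified by real-time PCR with primer probe set RTS5062 and normalized to RIBOGREEN total RNA. Values are percent inhibition relative to untreated controls.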

human SMAD7 mRNA [2] = test: Dose-dependent inhibition of human SMAD7 mRNA expression in Hep3B cells (Example 3, Study 1 and 2); type: cell-based; settings: electroporation; for % inhibition of SMAD7 mRNA expression: approximately 16 hours; for IC50: Study 1 (312.5-20000 nM)
Method in brief: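 Hep3B cells, 20,000 per well, electroporated with antisense oligonucleotide at 0.31, 1.25, 5.00 or 20.00 μM (first series) or 0.74, 2.22, 6.67 or 20.00 μM (second series). After ~16 h, SMAD7 mRNA measured by RT-qPCR (RTS5062), normalised to RIBOGREEN total RNA. Percent inhibition vs untreated cells; IC50 derived.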

[3] = electroporation, 15,000 nM, approximately 24 hours, relative to untreated control cells, gapmers targeting SEQ ID NO: 1 and 2
[4] = 312.5 nM, Study 1, relative to untreated control cells
[5] = Study 2, electroporation with 15,000 nM antisense oligonucleotide, 5-10-5 MOE gapmers targeting SEQ ID NO: 1 and 2
[6] = electroporation, 15,000 nM antisense oligonucleotide (Study 2), 5-10-5 MOE gapmers targeting SEQ ID NO: 1 and 2
[7] = electroporation, 5,000 nM, approximately 24 hours, relative to untreated control cells, gapmers targeting SEQ ID NO: 1 and 2
[8] = electroporation with 15,000 nM antisense oligonucleotide (Study 2), 5-10-5 MOE gapmers targeting SEQ ID NO: 1 and 2

Substance | % inhibition of SMAD7 mRNA expression (human SMAD7 mRNA [2]; [4]) | % inhibition of SMAD7 mRNA expression (human SMAD7 mRNA [2]; 1250.0 nM, Study 1) | % inhibition of SMAD7 mRNA expression (human SMAD7 mRNA [2]; 5000.0 nM, Study 1) | % inhibition of SMAD7 mRNA expression (human SMAD7 mRNA [2]; 20000.0 nM, Study 1) | IC50 (human SMAD7 mRNA [2]) | % Inhibition (human SMAD7 mRNA [1]; [5]) | % inhibition of SMAD7 mRNA expression (human SMAD7 mRNA [1]; [6]) | also measured
771773 (antisense eT*e[5mC]*eT*eT*eT*dT*d[5mC]*dG*d[5mC]*dA*dT*d[5mC]*d[5mC]*dT*d[5mC]*eA*eG*eG*eA*eA) [compound 771773] | 0% | 0% | 0% | 42% | > 20 µM |  |  | % inhibition of SMAD7 mRNA expression (human SMAD7 mRNA [1]; [3]): 57%
771831 (antisense e[5mC]*eG*eA*eT*e[5mC]*dA*dT*dT*dT*dT*d[5mC]*dT*dA*d[5mC]*dA*e[5mC]*e[5mC]*eT*eT*eT) [compound 771831] | 0% | 13% | 32% | 51% | 16 µM | 66% |  | 
771574 (antisense e[5mC]*eG*e[5mC]*eT*eT*dG*dG*dG*dA*d[5mC]*dT*dG*d[5mC]*dA*dA*eA*e[5mC]*e[5mC]*eT*e[5mC]) [compound 771574] | 0% | 5% | 36% | 58% | 13 µM |  |  | % inhibition of SMAD7 mRNA expression (human SMAD7 mRNA [1]; [5]): 66%
771581 (antisense eG*eG*eG*eA*e[5mC]*d[5mC]*d[5mC]*d[5mC]*dA*dG*d[5mC]*d[5mC]*dG*d[5mC]*d[5mC]*eA*eG*e[5mC]*eT*eT) [compound 771581] | 0% | 0% | 9% | 65% | 19 µM |  |  | % inhibition of SMAD7 mRNA expression (human SMAD7 mRNA [1]; [3]): 58%
771821 (antisense eG*eT*eT*e[5mC]*e[5mC]*dT*dT*dA*dT*dA*dG*dA*dT*dT*dA*eT*e[5mC]*e[5mC]*eA*eA) [compound 771821] | 0% | 9% | 27% | 46% | > 20 µM |  |  | % inhibition of SMAD7 mRNA expression (human SMAD7 mRNA [1]; [3]): 60%
771769 (antisense eG*eG*e[5mC]*eT*eG*dG*dG*dA*dA*dT*d[5mC]*dA*dG*dA*dA*e[5mC]*eT*eT*eG*eG) [compound 771769] | 10% | 0% | 3% | 53% | > 20 µM |  | 71% | 
771403 (antisense eG*eA*eA*e[5mC]*eA*dT*dG*dA*d[5mC]*d[5mC]*dT*d[5mC]*d[5mC]*dG*d[5mC]*eA*e[5mC]*eA*e[5mC]*e[5mC]) [compound 771403] | 5% | 4% | 25% | 35% | > 20 µM |  | 62% | 
771786 (antisense eA*eG*e[5mC]*eT*e[5mC]*dA*dA*dA*d[5mC]*dT*dT*dT*dG*dA*dA*eG*e[5mC]*e[5mC]*eT*eT) [compound 771786] | 2% | 0% | 53% | 40% | > 20 µM |  | 56% | 
771573 (antisense eG*e[5mC]*eT*eT*eG*dG*dG*dA*d[5mC]*dT*dG*d[5mC]*dA*dA*dA*e[5mC]*e[5mC]*eT*e[5mC]*eT) [compound 771573] | 0% | 5% | 24% | 56% | 18 µM |  |  | % inhibition of SMAD7 mRNA expression (human SMAD7 mRNA [1]; [3]): 65%
771506 (antisense eG*e[5mC]*eT*e[5mC]*eA*dG*d[5mC]*dT*d[5mC]*dA*d[5mC]*dG*d[5mC]*dT*d[5mC]*eT*eG*eT*e[5mC]*e[5mC]) [compound 771506] | 54% | 1% | 5% | 44% | > 20 µM |  | 53% | 
771416 (e[5mC]*e[5mC]*e[5mC]*e[5mC]*eA*dT*dG*d[5mC]*dG*d[5mC]*dT*d[5mC]*dG*dG*d[5mC]*eT*eG*eT*e[5mC]*e[5mC]; antisense) [compound 771416] | 0% | 3% | 19% | 35% | > 20 µM | 58% |  | 
771859 (antisense e[5mC]*e[5mC]*eA*eG*eA*dA*dA*dA*dT*dG*d[5mC]*dA*dG*dA*d[5mC]*eA*eG*e[5mC]*eT*eA) [compound 771859] |  |  |  |  |  | 42% |  | % inhibition of SMAD7 mRNA expression (human SMAD7 mRNA [1]; [7]): 43%
771606 (antisense eG*eG*eG*e[5mC]*eT*dG*d[5mC]*d[5mC]*d[5mC]*d[5mC]*dG*dG*d[5mC]*dA*dG*e[5mC]*e[5mC]*e[5mC]*eT*eT) [compound 771606] |  |  |  |  |  |  |  | % inhibition of SMAD7 mRNA expression (human SMAD7 mRNA [1]; [5]): 0%
771876 (antisense e[5mC]*eG*eA*eG*e[5mC]*dT*d[5mC]*d[5mC]*d[5mC]*dT*d[5mC]*d[5mC]*d[5mC]*dT*dG*eG*e[5mC]*e[5mC]*e[5mC]*e[5mC]) [compound 771876] |  |  |  |  |  | 0% |  | 
771491 (antisense eG*eG*e[5mC]*e[5mC]*e[5mC]*d[5mC]*dA*dG*d[5mC]*d[5mC]*d[5mC]*dT*dT*d[5mC]*dA*e[5mC]*eA*eA*eA*eG) [compound 771491] |  |  |  |  |  |  | 39% | 
771475 (antisense e[5mC]*eG*eT*e[5mC]*eA*dG*d[5mC]*dT*dG*dG*dA*dT*dG*d[5mC]*d[5mC]*eG*e[5mC]*eA*eG*e[5mC]) [compound 771475] |  |  |  |  |  |  | 26% | 
771350 (antisense eT*eT*eT*eG*e[5mC]*d[5mC]*d[5mC]*d[5mC]*dA*dA*dA*dA*d[5mC]*dT*d[5mC]*e[5mC]*eA*eA*eA*eG) [compound 771350] |  |  |  |  |  | 28% |  | % inhibition of SMAD7 mRNA expression (human SMAD7 mRNA [1]; [7]): 68%
771354 (antisense e[5mC]*eG*eG*e[5mC]*e[5mC]*dT*dT*d[5mC]*d[5mC]*dA*dT*d[5mC]*d[5mC]*dA*dA*e[5mC]*eT*e[5mC]*eT*e[5mC]) [compound 771354] |  |  |  |  |  | 39% |  | 
771760 (antisense eA*eT*e[5mC]*eT*eT*dA*d[5mC]*d[5mC]*dT*dG*dA*dA*dA*dG*d[5mC]*e[5mC]*e[5mC]*e[5mC]*e[5mC]*e[5mC]) [compound 771760] |  |  |  |  |  |  | 3% | % Inhibition of SMAD7 mRNA (human SMAD7 mRNA [1]; [8]): 25%
771626 (antisense eG*e[5mC]*eA*eG*eA*dG*d[5mC]*dT*dT*dA*dA*d[5mC]*dA*d[5mC]*dA*e[5mC]*eA*eG*eG*eA) [compound 771626] |  |  |  |  |  |  |  | % inhibition of SMAD7 mRNA expression (human SMAD7 mRNA [1]; [8]): 35%
771622 (antisense eA*eA*e[5mC]*eA*e[5mC]*dA*d[5mC]*dA*dG*dG*dA*dT*dG*dG*dG*eA*eG*e[5mC]*eA*eG) [compound 771622] |  |  |  |  |  |  |  | % inhibition of SMAD7 mRNA expression (human SMAD7 mRNA [1]; [5]): 34%
771437 (eG*e[5mC]*e[5mC]*eT*eG*dG*dA*dG*d[5mC]*dA*dG*d[5mC]*dA*dG*d[5mC]*eT*e[5mC]*e[5mC]*eA*eG; antisense) [compound 771437] |  |  |  |  |  | 0% |  | 
771694 (antisense e[5mC]*eT*e[5mC]*e[5mC]*e[5mC]*dA*dG*dG*dA*dG*dG*dG*dT*dA*dT*eG*e[5mC]*eA*e[5mC]*eA) [compound 771694] |  |  |  |  |  | 0% |  | 
771858 (antisense e[5mC]*eT*eG*e[5mC]*e[5mC]*dA*dA*d[5mC]*dG*dG*d[5mC]*dA*d[5mC]*dA*dG*eT*e[5mC]*eA*eT*eA) [compound 771858] |  |  |  |  |  |  | 31% | 
771494 (antisense e[5mC]*eA*eG*e[5mC]*eA*d[5mC]*dG*dG*dG*d[5mC]*dA*dG*d[5mC]*dT*dG*e[5mC]*eT*eG*eA*eT) [compound 771494] |  |  |  |  |  |  |  | % inhibition of SMAD7 mRNA expression (human SMAD7 mRNA [1]; [3]): 20%
771862 (antisense eT*e[5mC]*eT*eT*e[5mC]*d[5mC]*d[5mC]*d[5mC]*dA*dG*dA*dA*dA*dA*d[5mC]*eA*eG*e[5mC]*e[5mC]*e[5mC]) [compound 771862] |  |  |  |  |  | 10% |  | 
771889 (antisense eT*eA*eA*eG*eA*dG*d[5mC]*dA*dT*dT*dT*dA*dT*d[5mC]*dT*e[5mC]*eG*e[5mC]*e[5mC]*eA) [compound 771889] |  |  |  |  |  |  | 29% | 
771522 (antisense eG*e[5mC]*eA*eT*eG*dA*dA*dA*dA*dG*d[5mC]*dA*dA*dG*d[5mC]*eA*e[5mC]*eT*e[5mC]*eA) [compound 771522] |  |  |  |  |  |  | 29% | 
771731 (antisense eA*eA*eA*eA*e[5mC]*dT*dT*dT*dG*dT*dG*d[5mC]*d[5mC]*dT*dG*eT*eT*eT*e[5mC]*eA) [compound 771731] |  |  |  |  |  | 54% |  | % inhibition of SMAD7 mRNA expression (human SMAD7 mRNA [1]; [7]): 44%
